Experiment [1] has as its system common amaranth (Amaranthus retroflexus AMARE). In words: Example 6: weed control of clopyralid or picloram plus naptalam mixtures. The class given is in vivo. The following applies: postemergence. As to the method: (§1) Seedlings of common amaranth (Amaranthus retroflexus AMARE) and common lambsquarters (Chenopodium album; CHEAL), each 8 to 10 cm in height, were treated with postemergence applications of either clopyralid at 53.5 g ae/ha, picloram at 5.6 g ae/ha or naptalam at 140 g ae/ha, or the combination of clopyralid and naptalam at 53.5 g ae/ha and 140 g ae/ha, or the combination of picloram and naptalam at 5.6 g ae/ha and 140 g ae/ha, respectively, when they were 8-10 cm in height. All treatment mixtures contained 0.25% (v/v) non-ionic surfactant. […] Percent injury data was collected 10 days after treatment (DAT).

Experiment [2] has as its system common lambsquarters (Chenopodium album; CHEAL). The description is as above. The following applies: postemergence. The class given is in vivo. As to the method: as §1
In experiment [3] the test system is sunflower (helianthus sp. HELSS). Description: Example 8: weed control of clopyralid+naptalam mixtures. The class given is in vivo. The following applies: postemergence. As to the method: Seedlings of sunflower (helianthus sp. HELSS) were treated with postemergence applications of either clopyralid at 210 g ae/ha or at 105 g ae/ha, or naptalam at 56 g ae/ha, or the combination of clopyralid and naptalam at 210+56 g ae/ha or at 105+56 g ae/ha, respectively, when they were 8-10 cm in height. All treatment mixtures contained 0.25% (v/v) non-ionic surfactant. […] Percent injury data was collected 10 days after treatment (DAT).

Experiment [4] concerns Winter wheat (Triticum aestivum, TRZAW). Description: Example 3: preemergence crop selectivity of dicamba plus naptalam. The following applies: 13 DAT. The experiment is classed as in vivo. The method, then: (§2) In all use examples, plants were grown in a greenhouse environment.
(§3) Naptalam was used as a commercial SL formulation containing 240 g/l of naptalam (Alanap-L from Cheminova). Clopyralid was used as a commercial SL formulation containing 360 g/l of clopyralid (Stinger of Dow Agroscience). Picloram was used as a commercial SL formulation containing 240 g/l of picloram (Tordon 22K of Dow Agroscience). A mixture of 2,4-D+MCPP+Dicamba was used as a commercial SL formulation containing 283 g/l of 2,4-D, 63 g/l of MCPP and 25 g/l of Dicamba (Trimec Classic of PBI Gordon Corp.). Dicamba was used as a commercial SL formulation containing 480 g/l of Dicamba (Clarity BASF).
(§4) The evaluation for the plant damage or injury caused by the chemical compositions was carried out using a scale from 0 to 100%, when compared with the untreated control plants. Here, 0 means no damage and 100 means complete destruction of the plants. I50 values were estimated from % injury data at different application rates by non-linear regression of log-logistic dose-response curves.
Winter wheat (Triticum aestivum, TRZAW) seeds were sown into soil, and the following day treated with five different rates of dicamba between 5.6 and 560 g ae/ha. Diflufenzopr (DFFP) or naptalam at rates of 224 g ae/ha was applied either alone or in combination with dicamba treatments. Following application, pots were placed in a completely randomized design with four replications per treatment. Percent injury data was collected 13 DAT.

The test system of experiment [5] is perennial ryegrass (Lolium perenne, LOLPE). Description: Example 4: postemergence turf selectivity of dicamba plus naptalam. The class given is in vivo. The following applies: 13 DAT. As to the method:
as §2, §3, §4
(§5) Seedlings of tall fescue (Festuca arundinacea, FESAR) or perennial ryegrass (Lolium perenne, LOLPE) were treated with five different rates of dicamba between 28 and 2800 g ae/ha when they were 10-14 cm in height. DFFP or naptalam at rates of 140 g ae/ha were applied either alone or in combination with dicamba treatments. All treatment mixtures contained 0.25% (v/v) non-ionic surfactant plus 1% (w/v) ammonium sulfate. Following treatment, plants were placed in a completely randomized design with four replications per treatment. Percent injury data was collected 13 DAT.

Experiment [6] relates to tall fescue (Festuca arundinacea, FESAR). The experiment is described as above. The experiment is classed as in vivo. The conditions noted are these: 13 DAT. The method, then:
as §2, §3, §4, §5

The next experiment relates to TRZAW. In words: Example 5: postemergence wheat selectivity of dicamba plus naptalam. The class given is in vivo, Triticum aestivum. The following applies: 8 DAT. The method, then:
as §2, §3, §4
Seedlings of TRZAW were treated with five different rates of dicamba between 14 and 1400 g ae/ha when they were 12-14 cm in height. In addition, DFFP or naptalam at 70 g ae/ha were applied either alone or in combination with dicamba treatments. All treatment mixtures contained 0.25% (v/v) non-ionic surfactant plus 1% (w/v) ammonium sulfate. Following treatment, plants were placed in a completely randomized design with four replications per treatment. Percent injury data was collected 8 DAT.

In experiment [7] the test system is Palmer amaranth (Amaranthus palmeri; AMAPA). Description: Example 1: postemergence weed control of dicamba plus naptalam mixtures, greenhouse. The experiment is classed as in vivo. The following applies: 10 DAT. As to the method:
as §2, §3, §4
(§6) 22 ff. E=X+Y−(X·Y/100) where • X=effect in percent using herbicide A at an application rate a; • Y=effect in percent using herbicide B at an application rate b; • E=expected effect (in %) of A+B at application rates a+b.
(§7) The value E corresponds to the effect (plant damage or injury) which is to be expected if the activity of the individual compounds is just additive. If the observed effect is higher than the value E calculated according to Colby, a synergistic effect is present.
(§8) Seedlings of velvetleaf (Abutilon theophrasti; ABUTH), Palmer amaranth (Amaranthus palmeri; AMAPA), and common lambsquarters (Chenopodium album; CHEAL) were treated with postemergence applications of either dicamba at 140 or 280 g ae/ha, naptalam at 56 g ae/ha, or the combination of dicamba and naptalam at 140 and 56 g ae/ha, respectively, when they were 10-12 cm in height. All treatment mixtures contained 0.25% (v/v) non-ionic surfactant plus 1% (w/v) ammonium sulfate. Plants were placed in a completely randomized design with four replications per treatment. Percent injury data was collected 10 days after treatment (DAT).

The subject of experiment [8] is common lambsquarters (Chenopodium album; CHEAL). The description is as above. The experiment is classed as in vivo. The following applies: 10 DAT. As to the method:
as §2, §3, §4, §6, §7, §8

In experiment [9] the test system is velvetleaf (Abutilon theophrasti; ABUTH). Described as above. The class given is in vivo. The conditions noted are these: 10 DAT. As to the method:
as §2, §3, §4, §6, §7, §8

The subject of the next experiment is ABUTH. The conditions noted are these: naptalam 0 g ae/ha. As to the method:
as §2, §3, §4
(§9) Seedlings of ABUTH or CHEAL were treated with five different rates of dicamba between 0.14 and 140 g ae/ha when they were 10-12 cm in height. Naptalam was mixed with dicamba at rates of 0, 28, 35, 47, 70, or 140 g ae/ha to each dose-response series. All treatment mixtures included the addition of 0.25% (v/v) non-ionic surfactant and 1% (w/v) ammonium sulfate. Plants were placed in a completely randomized design with four replications per treatment. Percent injury data was collected 11 DAT and used to estimate the amount of dicamba necessary to obtain 50% injury (I50). […] estimates for solo applications of dicamba (I50 (—NPA)) were compared with I50 estimates for the combined application of dicamba and naptalam (I50 (+NPA)) to determine the relative increase of dicamba activity through the addition of naptalam.

The next experiment concerns CHEAL. The conditions noted are these: naptalam 0 g ae/ha. The method, then:
as §2, §3, §4, §9

Experiment [10] relates to sunflower (helianthus sp. HELSS). Description: Example 7: weed control of 2,4-D+MCPP+dicamba+naptalam mixtures. The experiment is classed as in vivo. The conditions noted are these: postemergence, naptalam 56 g ae/ha. As to the method:
as §2, §3, §4
Plants were placed in a completely randomized design with four replications per treatment. Percent injury data was collected 10 days after treatment (DAT).

The mark [11] stands for this setting: DFFP 140 g ae/ha alone (dicamba 0).
[12] abbreviates: naptalam 140 g ae/ha alone (dicamba 0).

As for `O=C(O)c1nc(Cl)ccc1Cl` [Clopyralid, clopyralid], the “Mean % Control (10 DAT) AMARE” value in [1] (clopyralid 53.5 g ae/ha) was 23%. For the same compound, the “Mean % Control (10 DAT) CHEAL” value in experiment [2] (clopyralid 53.5 g ae/ha) turned out to be 25%. The “Mean % Control (10 DAT) HELSS” value was found to be 28% in experiment [3] (clopyralid 105 g ae/ha) and 83% in [3] (clopyralid 210 g ae/ha).

For the compound `C/C(=N\NC(=O)Nc1cc(F)cc(F)c1)c1ncccc1C(=O)O` [DFFP, diflufenzopyr], the results for the “TRZAW Mean % Injury” value (in experiment [4] (DFFP 224 g ae/ha alone (dicamba 0)); in the experiment on TRZAW (DFFP 70 g ae/ha alone (dicamba 0))) were 61.3% and 8.8%, respectively. In experiment [5] (setting [11]), the “LOLPE Mean % Injury” value was found to be 30.0 c %. Further, the “FESAR Mean % Injury” value in experiment [6] (setting [11]) was determined as 38.8 b %.

For `COc1c(Cl)ccc(Cl)c1C(=O)O` [Dicamba, 3,6-dichloro-2-methoxybenzoic acid], the entries for the “Mean % Control AMAPA” value in experiment [7] (dicamba 140 g ae/ha) and in [7] (dicamba 280 g ae/ha) were 80.0% and 96.3%, respectively. The figures for the “Mean % Control CHEAL” value in experiment [8] (dicamba 140 g ae/ha) and in experiment [8] (dicamba 280 g ae/ha) were 86.3% and 98.5%, respectively. Besides, the “Mean % Control ABUTH” value stood at 65.0% in experiment [9] (dicamba 140 g ae/ha) and 91.3% in experiment [9] (dicamba 280 g ae/ha). In addition, the “ABUTH I50 (amount of dicamba for 50% injury)” value with ABUTH (11 DAT) is 80.2 g ae/ha. Besides, the “ABUTH Fold-increase of dicamba activity = I50 (-NPA)/I50(+NPA)” value in the experiment with ABUTH came out at 1.0. Further, the “CHEAL I50 (amount of dicamba for 50% injury)” value with CHEAL (11 DAT) came out at 35.2 g ae/ha. In addition, the “CHEAL Fold-increase of dicamba activity = I50 (-NPA)/I50(+NPA)” value in the experiment on CHEAL is 1.0. Also, the “TRZAW Mean % Injury” value amounted to 0% in [4] (dicamba alone 5.6 g ae/ha); 0% in experiment [4] (dicamba alone 17.7 g ae/ha); 0% in experiment [4] (dicamba alone 56.0 g ae/ha); 0% in experiment [4] (dicamba alone 177.0 g ae/ha); 76.3% in experiment [4] (dicamba alone 560.0 g ae/ha); 0% in the experiment on TRZAW (dicamba alone 14.0 g ae/ha). Also, the “TRZAW Mean % Injury” value in the experiment on TRZAW (dicamba alone 44.0 g ae/ha) came out at 2.5%; with TRZAW (dicamba alone 140 g ae/ha), 5.0%; with TRZAW (dicamba alone 440 g ae/ha), 25.0%; in the experiment on TRZAW (dicamba alone 1400 g ae/ha), 50.0%. The “LOLPE Mean % Injury” value is recorded as 0 e % in [5] (dicamba alone 28.0 g ae/ha); 0 e % in experiment [5] (dicamba alone 88.5 g ae/ha); 0 e % in [5] (dicamba alone 280 g ae/ha); 0 e % in [5] (dicamba alone 885 g ae/ha); 7.5 de % in experiment [5] (dicamba alone 2800 g ae/ha). Further, the “FESAR Mean % Injury” value worked out at 0 c % in experiment [6] (dicamba alone 28.0 g ae/ha); 2.5 c % in [6] (dicamba alone 88.5 g ae/ha); 5.0 c % in experiment [6] (dicamba alone 280 g ae/ha); 7.5 c % in experiment [6] (dicamba alone 885 g ae/ha); 32.5 b % in experiment [6] (dicamba alone 2800 g ae/ha).

Turning to `O=C(O)c1ccccc1C(=O)Nc1cccc2ccccc12` [Naptalam, N-1-naphthylphthalamic acid], in experiment [7] (naptalam 56 g ae/ha), the “Mean % Control AMAPA” value stood at 18.8%. Moreover, the “Mean % Control CHEAL” value in [8] (naptalam 56 g ae/ha) was determined as 0%. Besides, in experiment [9] (naptalam 56 g ae/ha), the “Mean % Control ABUTH” value worked out at 0%. In addition, the “TRZAW Mean % Injury” value (in experiment [4] (naptalam 224 g ae/ha alone (dicamba 0)); in the experiment on TRZAW (naptalam 70 g ae/ha alone (dicamba 0))) was 0% in each case. For the same compound, in experiment [5] (setting [12]), the “LOLPE Mean % Injury” value worked out at 0 e %. In addition, in experiment [6] (setting [12]), the “FESAR Mean % Injury” value is given as 0 c %. For the same compound, the “Mean % Control (10 DAT) AMARE” value in [1] (naptalam 140 g ae/ha) worked out at 0%. Further, the “Mean % Control (10 DAT) CHEAL” value in experiment [2] (naptalam 140 g ae/ha) is reported as 5%. In addition, the figures for the “Mean % Control (10 DAT) HELSS” value in [10] and in experiment [3] (naptalam 56 g ae/ha) were 12% and 10%, respectively.

Consider `Nc1c(Cl)c(Cl)nc(C(=O)O)c1Cl` [Picloram, picloram], for which, in [1] (picloram 5.6 g ae/ha), the “Mean % Control (10 DAT) AMARE” value worked out at 43%. The “Mean % Control (10 DAT) CHEAL” value in experiment [2] (picloram 5.6 g ae/ha) is 43%.

The values are drawn from patent publication US8648012B2, “Herbicidal compositions comprising naptalam” (BASF SE, priority 2009, dated 2014).
